From patent US5760036A, “Aminediol protease inhibitors” (E. R. Squibb & Sons, Inc., priority 1995, dated 1998) come the findings set out here.

One experiment deals with T1, HIV protease (Human immunodeficiency virus type 1 group M subtype B, UniProt P04585).
T1 construct: and purified protease
In words: HIV Protease Assay. The format is biochemical. The conditions noted are these: for HIV Protease % Inhibition at 10 μM: 10 μM inhibitor. In a few lines:
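At a single final concentration of 10 μM (4% DMSO), inhibitors were added to a 30-minute, 37° C reaction of purified enzyme with 450 μM H2N-Val-Ser-Gln-Asn-(β-naphthyl-alanine)-Pro-Val-Ile-OH at pH 5.5 (sodium acetate, BSA). Hydrolysis was quantified by reverse-phase HPLC with 220 nm detection after acid quench.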

For experiment [1], the system named is RF strain of HIV (CEM-SS cells). In words: Cell Culture Anti-HIV Activity (cell viability, formazan). The format is cell-based. The conditions noted are these: Human immunodeficiency virus 1, CEM-SS, 144 h, CEM-SS cells, RF strain of HIV, multiplicity of infection 0.04, 6 days at 37° C., 450 nm; read-out: HIV (CEM Cells) IC50. In a few lines:
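Half-log compound dilutions added to CEM-SS cells (5000/well) carrying HIV RF (MOI 0.04), 6 days, 37° C. Cell protection measured as formazan from tetrazolium, A450. IC50: drug level restoring infected-cell formazan to 50% of the uninfected untreated control.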

The mark [2] stands for this setting: 4% DMSO, 450 μM substrate, pH 5.5, 30 minutes at 37° C., RP-HPLC.
Setting [3] is: pH 5.5, 10 μM inhibitor, 4% DMSO, 450 μM substrate, pH 5.5, 30 minutes at 37° C., RP-HPLC, read-out: HIV Protease % Inhibition at 10 μM.

Like-named read-outs stand apart in the source and are kept apart here.

For the compound `CC(C)(C)OC(=O)N[C@@H](Cc1ccccc1)[C@H](O)CNC[C@@H](O)[C@H](Cc1ccccc1)NC(=O)C(CCO)C(C)(C)C` (single isomer, unassigned; isomer a) [Compound 312, [1S-[1R*, 2S* (2S*, 3R*)]]-[3-[[3-[[2-(1,1-Dimethylethyl)-4-hydroxy-1-oxobutyl]amino]-2-hydroxy-4-phenylbutyl]amino]-2-hydroxy-1-(phenylmethyl)propyl]carbamic acid, 1,1-dimethylethyl ester, isomer A], on HIV protease (setting [2]), the “HIV Protease % Inhibition at 10 μM” value is given as 95%. Besides, the half-maximal inhibitory concentration (IC50) in experiment [1] came out at 3500 nM.

Turning to `CN1CCN(CCOc2ccc(C[C@H](NC(=O)OC(C)(C)C)[C@H](O)CNC[C@@H](O)[C@H](Cc3ccccc3)NC(=O)OC(C)(C)C)cc2)C1=O` [Compound 363, [1S-[1R*,2S*(2S*,3R*)]]-[3-[[3-[[(1,1-Dimethylethoxy)carbonyl]amino]-2-hydroxy-4-[4-[2-(3-methyl-2-oxo-1-imidazolidinyl)-ethoxy]phenyl]butyl]amino]-2-hydroxy-1-(phenylmethyl)propyl]carbamic acid, 1,1-dimethylethyl ester], the inhibition at 10 µM on HIV protease (pH 5.5, read-out: HIV Protease % Inhibition at 10 μM) came out at 99%. Moreover, the 50% inhibitory concentration (IC50) in experiment [1] worked out at 40 nM.

As for `CC(C)(C)OC(=O)N[C@@H](Cc1ccccc1)[C@H](O)CNC[C@@H](O)[C@H](Cc1ccccc1)NC(=O)OC1CCCOC1` (stereo partly drawn) [Compound 318, [1S-(1R*,2S*)]-[Iminobis[2-hydroxy-1-(phenylmethyl)-3,1-propanediyl)]bis[carbamic acid], 1,1-dimethylethyl-3-tetrahydropyranyl ester], the inhibition at 10 µM on HIV protease (setting [3]) is 100%. In addition, in experiment [1], the IC50 turned out to be 100 nM.

`CC(OC(=O)N[C@@H](Cc1ccccc1)[C@H](O)CNC[C@@H](O)[C@H](Cc1ccccc1)NC(=O)OC(C)(C)C)c1cccnc1` (stereo partly drawn) [Compound 258, [R-(R*,S*)]-[Iminobis[2-hydroxy-1-(phenylmethyl)-3,1-propanediyl)]biscarbamic acid. 1,1-dimethylethyl-1-(3-pyridinyl)ethyl ester]: the inhibition at 10 µM on HIV protease (setting [3]) turned out to be 91%. Besides, in experiment [1], the IC50 was found to be 1500 nM.

As to `CC(C)(C)OC(=O)N[C@@H](Cc1ccccc1)[C@H](O)CNC[C@@H](O)[C@H](Cc1ccccc1)NC(=O)OCc1cccnc1` [Compound 256, [R-(R*,S*)]-[Iminobis[2-hydroxy-1-(phenylmethyl)-3,1-propanediyl)]biscarbamic acid. 1,1-dimethylethyl-3-pyridinylmethyl ester], on HIV protease (setting [3]), the inhibition at 10 µM was 88%. For the same compound, the IC50 in experiment [1] came out at 1500 nM.

In the case of `CC(C)(C)OC(=O)N[C@@H](Cc1ccccc1)[C@H](O)CNC[C@@H](O)[C@H](CCc1ccccc1)NC(=O)OCc1ccccc1` [Compound 24, [1S-[1R*,2S*((2S*,3R*)]]-[3-[[3-[[(1,1-Dimethylethoxy)carbonyl]amino-2-hydroxy-4-phenylbutyl]amino]-2-hydroxy-1-(2-phenylethyl)propyl]carbamic acid, phenylmethyl ester], the inhibition at 10 µM at HIV protease (setting [3]) was found to be 78%. For the same compound, in experiment [1], the IC50 was determined as 4500 nM.

For the compound `CC(C)[C@H](NC(=O)OCCO)C(=O)N[C@@H](Cc1ccccc1)[C@H](O)CNC[C@@H](O)[C@H](Cc1ccccc1)NC(=O)OC(C)(C)C` (relative stereo) [Compound 218, [1R*,2S*(2S*,3R*)]-N-[3-[[3-[[(1,1-Dimethylethoxy)carbonyl]amino]-2-hydroxy-4-phenylbutyl]amino]-2-hydroxy-1-(phenylmethyl)propyl]-N^2-[(2-hydroxyethoxy)carbonyl]-L-valinamide], the inhibition at 10 µM on HIV protease (setting [3]) amounted to 96%. In addition, in experiment [1], the IC50 worked out at 1100 nM.

In the case of `CC[C@H](C)[C@H](NC(=O)OCc1ccccc1)[C@H](O)CNC[C@@H](O)[C@H](Cc1ccccc1)NC(=O)OC(C)(C)C` [Compound 16, [2S-[2R*,[S*(2S*,3R*)]]-[1-Hydroxy-3-[[(1,1-dimethylethoxy)carbonyl]-amino]-2-hydroxy-4-phenylbutyl]amino]ethyl-2-methylbutyl]carbamic acid, phenylmethyl ester], at HIV protease (setting [3]), the inhibition at 10 µM turned out to be 83%. In experiment [1], the IC50 was not below 2300 nM.

On to `CC(C)(C)OC(=O)N[C@@H](Cc1ccccc1)[C@H](O)CNC[C@@H](O)[C@H](Cc1ccccc1)NC(=O)C1(O)COCC1(C)C` (single isomer, unassigned; isomer a) [Compound 364, [1S-[1R*,2S*(2S*,3R*)]]-[2-Hydroxy-3-[[tetrahydro-3-hydroxy-4,4-dimethyl-3-furanyl)carbonyl]amino]-4-phenylbutyl]amino]-1-(phenylmethyl)-propyl]carbamic acid, 1,1-dimethylethyl ester, Isomer A], for which the “HIV Protease % Inhibition at 10 μM” value on HIV protease (setting [2]) was determined as 98%. Further, the half-maximal inhibitory concentration (IC50) in experiment [1] is 220 nM.

With `CC(C)(C)OC(=O)N[C@@H](Cc1ccccc1)[C@H](O)CNC[C@@H](O)[C@H](Cc1ccccc1)NC(=O)C(=O)C(C)(C)C` [Compound 213, [1S-[1R*,2S*(2S*,3R*)]]-[3-[[3-[(3,3-Dimethyl-1,2-dioxobutyl)amino]-2-hydroxy-4-phenylbutyl]amino]-2-hydroxy-1-(phenylmethyl)propyl]carbamic acid, 1,1-dimethylethyl ester], the inhibition at 10 µM on HIV protease (setting [3]) worked out at 98%. Besides, in experiment [1], the IC50 stood at 170 nM.

As for `CC(C)(C)OC(=O)N[C@@H](Cc1ccccc1)[C@H](O)CNC[C@@H](O)[C@H](Cc1ccccc1)NC(=O)OC1(CO)CCC1` [Compound 303, [1S-(1R*,2S*)]-[Iminobis[2-hydroxy-1-(phenylmethyl)-3,1-propanediyl]]bis[[carbamic acid], 1-(hydroxymethyl)cyclobutyl 1,1-dimethylethyl ester], the inhibition at 10 µM at HIV protease (setting [3]) amounted to 98%. For the same compound, the IC50 in experiment [1] was 70 nM.

In the case of `CC(C)(C)OC(=O)N[C@@H](Cc1ccccc1)[C@H](O)CNC[C@@H](O)[C@H](Cc1ccc(OCc2ccccc2)cc1)NC(=O)OCc1ccccc1` [Compound 17, [1S-[1R*,2S*(2S*,3R*)]]-[3-[[3-[[(1,1-Dimethylethoxy)carbonyl]amino]2-hydroxy-4-phenylbutyl]amino]-2-hydroxy-1-[[4-(phenylmethoxy)phenyl]methyl]propyl]carbamic acid, phenylmethyl ester], on HIV protease (setting [3]), the inhibition at 10 µM was 84%. In addition, the IC50 in experiment [1] was more than 1500 nM.

For the compound `CC(C)[C@H](NC(=O)OCc1ccc2ccccc2n1)C(=O)N[C@@H](Cc1ccccc1)[C@H](O)CNC[C@@H](O)[C@H](Cc1ccccc1)NC(=O)OC(C)(C)C` (relative stereo) [Compound 281, [1R*,2S*(2S*,3R*)]]-N-[3-[[1,1-Dimethylethoxy)carbonyl]amino]-2-hydroxy-4-phenylbutyl]amino]-2-hydroxy-1-(phenylmethyl)-proyl]-N^2-[(2-quinolinylmethoxy)carbonyl]-L-valinamide], the inhibition at 10 µM on HIV protease (setting [3]) was 100%. For the same compound, the IC50 in experiment [1] came to 290 nM.

As to `CC(C)(C)OC(=O)N[C@@H](Cc1ccccc1)[C@H](O)CNC[C@@H](O)[C@H](Cc1ccccc1)NC(=O)O[C@H]1COC[C@@H]1O` [Compound 316, [1S-(1R*,2S*), (3S-trans)]-[Iminobis[2-hydroxy-1-(phenylmethyl)-3,1-propanediyl]]bis[carbamic acid], 4-hydroxy-3-tetrahydrofuranyl 1,1-dimethylethyl ester], the inhibition at 10 µM on HIV protease (setting [3]) is 97%. In addition, the IC50 in experiment [1] stood at 620 nM.

By IC50 is commonly meant the concentration at which inhibition is half-maximal. Broadly, the inhibition is the relative decrease from the control value, in per cent.
